ChEMBL document CHEMBL2010711, “Synthesis and comparative evaluation of 4-oxa- and 4-aza-podophyllotoxins as antiproliferative microtubule destabilizing agents” (Bioorg Med Chem Lett, 2012)
Activity calls are given as the source filed them.

Legend:
CCRF-CEM = test: Cytotoxicity against human CCRF-CEM cells after 48 hrs by trypan blue dye exclusion assay; format: functional
HL-60(TB) = test: Cytotoxicity against human HL-60(TB) cells after 48 hrs by trypan blue dye exclusion assay; format: functional; details: HL-60, 48 h
MOLT-4 = test: Cytotoxicity against human MOLT4 cells after 48 hrs by trypan blue dye exclusion assay; format: functional; details: MOLT-4, 48 h
RPMI-8226 = test: Cytotoxicity against human RPMI8226 cells after 48 hrs by trypan blue dye exclusion assay; format: functional; details: RPMI-8226, 48 h
SR = test: Cytotoxicity against human SR cells after 48 hrs by trypan blue dye exclusion assay; format: functional
A549 = test: Cytotoxicity against human A549 cells after 48 hrs by trypan blue dye exclusion assay; format: functional; details: A549, 48 h
EKVX = test: Cytotoxicity against human EKVX cells after 48 hrs by trypan blue dye exclusion assay; format: functional
HOP-92 = test: Cytotoxicity against human HOP92 cells after 48 hrs by trypan blue dye exclusion assay; format: functional; details: HOP-92, 48 h
NCI-H226 = test: Cytotoxicity against human NCI-H226 cells after 48 hrs by trypan blue dye exclusion assay; format: functional; details: NCI-H226, 48 h
NCI-H23 = test: Cytotoxicity against human NCI-H23 cells after 48 hrs by trypan blue dye exclusion assay; format: functional; details: NCI-H23, 48 h
NCI-H322M = test: Cytotoxicity against human NCI-H322M cells after 48 hrs by trypan blue dye exclusion assay; format: functional
NCI-H460 = test: Cytotoxicity against human NCI-H460 cells after 48 hrs by trypan blue dye exclusion assay; format: functional; details: NCI-H460, 48 h
NCI-H522 = test: Cytotoxicity against human NCI-H522 cells after 48 hrs by trypan blue dye exclusion assay; format: functional; details: NCI-H522, 48 h
COLO 205 = test: Cytotoxicity against human COLO205 cells after 48 hrs by trypan blue dye exclusion assay; format: functional; details: COLO 205, 48 h
HCC 2998 = test: Cytotoxicity against human HCC2998 cells after 48 hrs by trypan blue dye exclusion assay; format: functional; details: HCC 2998, 48 h
HCT-116 = test: Cytotoxicity against human HCT116 cells after 48 hrs by trypan blue dye exclusion assay; format: functional; details: HCT-116, 48 h
HCT-15 = test: Cytotoxicity against human HCT15 cells after 48 hrs by trypan blue dye exclusion assay; format: functional; details: HCT-15, 48 h
HT-29 = test: Cytotoxicity against human HT-29 cells after 48 hrs by trypan blue dye exclusion assay; format: functional; details: HT-29, 48 h
KM12 = test: Cytotoxicity against human KM12 cells after 48 hrs by trypan blue dye exclusion assay; format: functional; details: KM12, 48 h
SW-620 = test: Cytotoxicity against human SW620 cells after 48 hrs by trypan blue dye exclusion assay; format: functional; details: SW-620, 48 h
SF-268 = test: Cytotoxicity against human SF268 cells after 48 hrs by trypan blue dye exclusion assay; format: functional; details: SF-268, 48 h
SF-295 = test: Cytotoxicity against human SF295 cells after 48 hrs by trypan blue dye exclusion assay; format: functional; details: SF-295, 48 h
SF-539 = test: Cytotoxicity against human SF539 cells after 48 hrs by trypan blue dye exclusion assay; format: functional; details: SF-539, 48 h
SNB-19 = test: Cytotoxicity against human SNB19 cells after 48 hrs by trypan blue dye exclusion assay; format: functional; details: SNB-19, 48 h
SNB-75 = test: Cytotoxicity against human SNB75 cells after 48 hrs by trypan blue dye exclusion assay; format: functional; details: SNB-75, 48 h
U-251 = test: Cytotoxicity against human U251 cells after 48 hrs by trypan blue dye exclusion assay; format: functional; details: U-251, 48 h
LOX IMVI = test: Cytotoxicity against human LOXIMVI cells after 48 hrs by trypan blue dye exclusion assay; format: functional
Malme-3M = test: Cytotoxicity against human MALME-3M cells after 48 hrs by trypan blue dye exclusion assay; format: functional
M14 = test: Cytotoxicity against human M14 cells after 48 hrs by trypan blue dye exclusion assay; format: functional; details: M14, 48 h
MDA-MB-435 = test: Cytotoxicity against human MDA-MB-435 cells after 48 hrs by trypan blue dye exclusion assay; format: functional; details: MDA-MB-435, 48 h
SK-MEL-2 = test: Cytotoxicity against human SK-MEL-2 cells after 48 hrs by trypan blue dye exclusion assay; format: functional; details: SK-MEL-2, 48 h
SK-MEL-28 = test: Cytotoxicity against human SK-MEL-28 cells after 48 hrs by trypan blue dye exclusion assay; format: functional; details: SK-MEL-28, 48 h
SK-MEL-5 = test: Cytotoxicity against human SK-MEL-5 cells after 48 hrs by trypan blue dye exclusion assay; format: functional; details: SK-MEL-5, 48 h
UACC-257 = test: Cytotoxicity against human UACC257 cells after 48 hrs by trypan blue dye exclusion assay; format: functional; details: UACC-257, 48 h
UACC-62 = test: Cytotoxicity against human UACC62 cells after 48 hrs by trypan blue dye exclusion assay; format: functional; details: UACC-62, 48 h
IGROV-1 = test: Cytotoxicity against human IGROV1 cells after 48 hrs by trypan blue dye exclusion assay; format: functional; details: IGROV-1, 48 h
OVCAR-3 = test: Cytotoxicity against human OVCAR3 cells after 48 hrs by trypan blue dye exclusion assay; format: functional; details: OVCAR-3, 48 h
OVCAR-4 = test: Cytotoxicity against human OVCAR4 cells after 48 hrs by trypan blue dye exclusion assay; format: functional; details: OVCAR-4, 48 h
OVCAR-5 = test: Cytotoxicity against human OVCAR5 cells after 48 hrs by trypan blue dye exclusion assay; format: functional; details: OVCAR-5, 48 h
OVCAR-8 = test: Cytotoxicity against human OVCAR8 cells after 48 hrs by trypan blue dye exclusion assay; format: functional; details: OVCAR-8, 48 h
NCI/ADR-RES = test: Cytotoxicity against human NCI/ADR-RES cells after 48 hrs by trypan blue dye exclusion assay; format: functional
SK-OV-3 = test: Cytotoxicity against human SKOV3 cells after 48 hrs by trypan blue dye exclusion assay; format: functional; details: SK-OV-3, 48 h
786-0 = test: Cytotoxicity against human 786-0 cells after 48 hrs by trypan blue dye exclusion assay; format: functional; details: 786-0, 48 h
A498 = test: Cytotoxicity against human A498 cells after 48 hrs by trypan blue dye exclusion assay; format: functional; details: A498, 48 h
ACHN = test: Cytotoxicity against human ACHN cells after 48 hrs by trypan blue dye exclusion assay; format: functional
CAKI-1 = test: Cytotoxicity against human CAKI-1 cells after 48 hrs by trypan blue dye exclusion assay; format: functional; details: CAKI-1, 48 h
RXF 393 = test: Cytotoxicity against human RXF393 cells after 48 hrs by trypan blue dye exclusion assay; format: functional; details: RXF 393, 48 h
SN12C = test: Cytotoxicity against human SN12C cells after 48 hrs by trypan blue dye exclusion assay; format: functional
TK-10 = test: Cytotoxicity against human TK10 cells after 48 hrs by trypan blue dye exclusion assay; format: functional; details: TK-10, 48 h
UO-31 = test: Cytotoxicity against human UO31 cells after 48 hrs by trypan blue dye exclusion assay; format: functional; details: UO-31, 48 h
PC-3 = test: Cytotoxicity against human PC3 cells after 48 hrs by trypan blue dye exclusion assay; format: functional; details: PC-3, 48 h
DU-145 = test: Cytotoxicity against human DU145 cells after 48 hrs by trypan blue dye exclusion assay; format: functional; details: DU-145, 48 h
MCF7 = test: Cytotoxicity against human MCF7 cells after 48 hrs by trypan blue dye exclusion assay; format: functional; details: MCF7, 48 h
MDA-MB-231 = test: Cytotoxicity against human MDA-MB-231 cells after 48 hrs by trypan blue dye exclusion assay; format: functional; details: MDA-MB-231, 48 h
[1] = Cytotoxicity against human Hs 578T cells after 48 hrs by trypan blue dye exclusion assay; format: functional
BT-549 = test: Cytotoxicity against human BT549 cells after 48 hrs by trypan blue dye exclusion assay; format: functional; details: BT-549, 48 h
MDA-MB-468 = test: Cytotoxicity against human MDA-MB-468 cells after 48 hrs by trypan blue dye exclusion assay; format: functional; details: MDA-MB-468, 48 h
Paracentrotus lividus [2] = test: Antimitotic activity against Paracentrotus lividus embryo assessed as cleavage alteration at 2 fold less effective threshold concentration after 2.5 to 6 hrs; format: functional, organism-based
Paracentrotus lividus [3] = test: Antimitotic activity against Paracentrotus lividus embryo assessed as cleavage arrest at 2 fold less effective threshold concentration after 2.5 to 6 hrs; format: functional, organism-based
Paracentrotus lividus [4] = test: Microtubule destabilizing activity in Paracentrotus lividus embryo assessed as embryo spinning at 2 fold less effective threshold concentration after 15 mins to 20 hrs; format: functional, organism-based

## COc1cc([C@H]2C3=C(COC3=O)Nc3cc4c(cc32)OCO4)cc2c1OCO2
CCRF-CEM
  GI50: 120 nM
HL-60(TB)
  GI50: 99 nM
MOLT-4
  GI50: 360 nM
RPMI-8226
  GI50: 93.1 nM
SR
  GI50: 60.1 nM
A549
  GI50: 306 nM
EKVX
  GI50: 320 nM
HOP-92
  GI50: 136 nM
NCI-H226
  GI50: 4590 nM
NCI-H23
  GI50: 142 nM
NCI-H322M
  GI50: 142 nM
NCI-H460
  GI50: 690 nM
NCI-H522
  GI50: 144 nM
COLO 205
  GI50: 186 nM
HCC 2998
  GI50: 387 nM
HCT-116
  GI50: 236 nM
HCT-15
  GI50: 256 nM
HT-29
  GI50: 1250 nM
KM12
  GI50: 36.2 nM
SW-620
  GI50: 98.2 nM
SF-268
  GI50: 108 nM
SF-295
  GI50: 29 nM
SF-539
  GI50: 48.3 nM
SNB-19
  GI50: 362 nM
SNB-75
  GI50: 26.7 nM
U-251
  GI50: 108 nM
LOX IMVI
  GI50: 117 nM
Malme-3M
  GI50: > 100000 nM
M14
  GI50: 228 nM
MDA-MB-435
  GI50: 26.9 nM
SK-MEL-2
  GI50: 207 nM
SK-MEL-28
  GI50: 61 nM
SK-MEL-5
  GI50: 101 nM
UACC-257
  GI50: 74.1 nM
UACC-62
  GI50: 48 nM
IGROV-1
  GI50: 185 nM
OVCAR-3
  GI50: 31.9 nM
OVCAR-4
  GI50: 98.4 nM
OVCAR-5
  GI50: 1090 nM
OVCAR-8
  GI50: 232 nM
NCI/ADR-RES
  GI50: 103 nM
SK-OV-3
  GI50: 155 nM
786-0
  GI50: 321 nM
A498
  GI50: 30.9 nM
ACHN
  GI50: 357 nM
CAKI-1
  GI50: 128 nM
RXF 393
  GI50: 30.3 nM
SN12C
  GI50: 350 nM
TK-10
  GI50: 115 nM
UO-31
  GI50: 1380 nM
PC-3
  GI50: 80.3 nM
DU-145
  GI50: 173 nM
MCF7
  GI50: 37.2 nM
MDA-MB-231
  GI50: 308 nM
[1]
  GI50: 37.8 nM
BT-549
  GI50: 338 nM
MDA-MB-468
  GI50: 119 nM
Paracentrotus lividus [2]
  Activity: inactive
Paracentrotus lividus [3]
  Activity: inactive
Paracentrotus lividus [4]
  Activity: inactive
